{
  "source": "paper PMC5650372",
  "about": "(Oncotarget, 2017)",
  "key": {"[1]": {"target": "T1, DNA-PKcs, XRCC4 and DNA ligase IV on DNA (Homo sapiens, UniProt P78527)", "T1 construct": "endogenous in cells; host or cells: MCF7 nuclear extract", "experiment": "DNA end binding assay (MCF7 nuclear extract)", "type": "biochemical", "conditions": "5 μM, MCF7 nuclear extract, 10, 30, 60 minutes", "from_the_text": "One kb of DNA fragment, including an EcoRI sequence in the middle, was amplified by PCR using pEGFP as a template and a pair of biotinylated EGFP primers (5′-biotin-[…]-3′ and 5′-biotin-[…]-3′: Valuegene, San Diego, CA). The amplified DNA fragment was cleaved by EcoRI to produce two 0.5 kb biotinylated DNA fragments, and was purified using the QIAquick PCR purification kit (Qiagen). […] An aliquot of the reaction was removed at each time point to separate the supernatant and the beads. The supernatant was subjected to SDS-PAGE and immunoblotting with indicated antibodies. The beads were washed twice with 250 μL of IP buffer (25 mM Hepes-KOH, pH 7.5, 100 mM NaCl, 20% glycerol, 5 mM EDTA, 1 mM DTT, 0.05% Nonidet P-40, 10 mM NaF, and protease inhibitor mixture) and subjected to SDS-PAGE and immunoblotting with indicated antibodies."}, "[2]": {"test_system": "NHEJ in intact cells of different cell lines", "experiment": "Cellular NHEJ assay, summary over cell lines", "type": "cell-based", "conditions": "Homo sapiens; range over different cell lines (Table 1); read-out: potency against NHEJ in intact cells", "method": "(§1) deficient cell growth in vitro […]\n(§2) incorporated in the corresponding no inhibitor control mTOR, DNA-PK and PI3K-alpha assays were to determine percent inhibition. An IC50 value was then performed as reported previously. estimated.\n(§3) ATM and ATR assay and IC50 determination Cellular NHEJ assay\n(§4) HA-ATM and FLAG-ATR (HA-labeled ATM, and The experimental design is illustrated in FLAG-labeled ATR) were each transiently expressed in Supplementary Figure 4. Cal-51 breast cancer cells HEK293 cells (293FT cells, Invitrogen Cat: R700-07) were separately transfected with pEGFP plasmid (6085-using Lipofectamine as transfection reagent. Cells were 1, Clontech, Mountain View, CA) digested with either harvested 6 days post transfection and spun down to EcoRI (to measure NHEJ) or StuI (to measure transfection separate cells from media. Cells were then lysed using a efficiency) using a Amaxa cell line nuclearfector kit V lysis buffer (50 mM Tris buffer, (Tris(hydroxylmethyl)- (CCA-1003, Lonza). Immediately after the transfection, aminomethane, pH 7.5), 100 mM NaCl, 50 mM βGOP, the cells were treated with DMSO or compounds at 10% Glycerol, 0.5% Tween 20, 1 mM EDTA, 25 mM indicated concentrations for 24 hours and GFP-positive sodium fluoride (NaF), 20 nM microcystine, 2 mM cells were counted under a fluorescent microscope. […]"}, "[3]": {"test_system": "pATM S1981 and pNbs1 S343 in HT29 and MDA-MB-436 cells", "experiment": "Immunoblotting of intact cells with bleomycin", "type": "cell-based, human", "conditions": "5 μM with 1.5 mU/mL bleomycin, 2 or 12 hours"}, "NHEJ activity": {"test_system": "NHEJ activity", "experiment": "Reconstituted cell-free NHEJ assay (MCF7 nuclear extract)", "type": "biochemical, human", "method": "MCF7 human breast cancer cells (5-10 x 10^7 each) were incubated in 5 pellet volumes of cold hypotonic buffer (10 mM Hepes-KOH, pH 7.5, 1.5 mM MgCl2, 5 mM KCl, and 0.5 mM DTT) for 20 minutes and were homogenized in a tight-fitting glass dounce homogenizer for 10-20 strokes. The nuclei were then collected by low-speed centrifugation and nuclear proteins were extracted by high-salt buffer (50 mM Tris-HCl, pH 7.5, 1 M KCl, 2 mM EDTA, 1 mM DTT, and protease inhibitors). The extracted nuclear proteins were dialyzed against 1 L of dialysis buffer (20 mM Tris-HCl, pH 8.0, 20% glycerol, 0.1 M KOAc, 0.5 mM EDTA, and 1 mM DTT) for 1 hour and were used for the in vitro NHEJ assay.\n(§5) Nuclear protein (10-20 μg) prepared above was pre-treated with compounds as indicated on ice for 15 minutes. Twenty-five nanograms of EcoRI-digested pBluescript DNA (Stratagene, La Jolla, CA) were then added and the mixture was adjusted to 20 μL final volume in NHEJ buffer (50 mM Hepes-KOH pH 8.0, 40 mM KOAc, 1 mM Mg(OAc)2, 1 mM ATP, 0.1 mg/mL BSA, and 1 mM DTT). After incubation at 25°C for 60 minutes, the reaction was terminated by incubation with 1 μg/mL RNase A for 10 minutes followed by treatment with 2 mg/mL Protease K in 0.5% SDS at 55°C for 30 minutes. The reactions were run onto 0.8% agarose and the gel was stained with Sybr Green (S756, Invitrogen, Carlsbad, CA). For Western blots, an aliquot of the same reaction mixture described above was subjected to SDS-PAGE, transferred to the PVDF membrane, and immunoblotted with indicated antibodies."}, "NHEJ in Cal-51 cells": {"test_system": "NHEJ in Cal-51 cells", "experiment": "Cellular NHEJ assay with GFP reporter gene", "type": "cell-based, human", "conditions": "1 μM", "method": "as §1, §2, §3, §4"}, "pChk2 T68": {"test_system": "pChk2 T68", "experiment": "Western blot of cell-free NHEJ reaction (MCF7 nuclear extract)", "type": "biochemical, human", "conditions": "MCF7 nuclear extract, 0.05, 0.5 or 5 μM", "method": "as §5"}, "pDNA-PK S2056": {"test_system": "pDNA-PK S2056", "experiment": "Western blot of cell-free NHEJ reaction (MCF7 nuclear extract)", "type": "biochemical, human", "method": "as §5"}, "pATM S1981": {"test_system": "pATM S1981", "experiment": "Western blot of cell-free NHEJ reaction (MCF7 nuclear extract)", "type": "biochemical, human", "conditions": "MCF7 nuclear extract with linear dsDNA", "method": "as §5"}, "[4]": {"test_system": "pS6 S235/236 in NCI-H441 cells", "experiment": "Western blot quantitation of pS6 S235/236 (mTORC1 biomarker)", "type": "cell-based", "conditions": "Homo sapiens; NCI-H441, presence of bleomycin, 2 hrs, n=3; read-out: IC50 of pS6 S235/236 inhibition"}},
  "data": [
    {"molecule": "CCN1C(=O)CNc2ncc(-c3ccc(-c4nc[nH]n4)nc3C)nc21", "note": "[CC-115, 1-ethyl-7-(2-methyl-6-(1H-1,2,4-triazol-3-yl)pyridin-3yl)-3,4-dihydropyrazino[2,3-b]pyrazin-2(1H)-one]", "values": [
      {"measurement": "DNA-PKcs, XRCC4 and DNA ligase IV bound to DNA over time", "setting": "[1]", "value": "retained from 10 minutes through the end of the reaction at 60 minutes"},
      {"measurement": "IC50", "setting": "[2]", "value": "1000 to 7000", "unit": "nM"},
      {"measurement": "ATM activity (pATM S1981 and pNbs1 S343)", "setting": "[3]", "value": "significantly inhibited"},
      {"measurement": "inhibition of NHEJ activity, cell-free", "setting": "NHEJ activity; 0.5 μM", "value": "Partial inhibition"},
      {"measurement": "inhibition of NHEJ activity, cell-free", "setting": "NHEJ activity; 5 μM", "value": "complete inhibition"},
      {"measurement": "GFP-positive cells (pEGFP-EcoRI)", "setting": "NHEJ in Cal-51 cells", "value": 1.25, "unit": "%"},
      {"measurement": "GFP-positive cells (pEGFP-StuI)", "setting": "NHEJ in Cal-51 cells; DMSO 25.71%", "value": 10.47, "unit": "%"},
      {"measurement": "inhibition of pChk2 T68, cell-free", "setting": "pChk2 T68", "value": "also inhibited"},
      {"measurement": "inhibition of pDNA-PK S2056, cell-free", "setting": "pDNA-PK S2056", "value": "inhibited"},
      {"measurement": "inhibition of pATM S1981, cell-free", "setting": "pATM S1981", "value": "reduction"},
      {"measurement": "IC50", "setting": "[4]", "value": "160 ± 10", "unit": "nM"}
    ]}
  ]
}
